Results published in patent US20240225915A1, “COMPOSITIONS FOR FIGHTING MALODORS” (SYMRISE AG, priority 2021, published 2024).

assay: Evaluation of malodor neutralization: sniffer box evaluation by 12 expert panelists; conditions: arithmetic mean of panelist ratings; line scale from no odor (0) to strongest imaginable (10), moderate (5) = unperfumed malodor reference; 1 g water added to each sample
Protocol: The object of the following experiments has been the evaluation of performance against feminine hygiene malodor out of sniffer boxes. For this purpose 12 expert panelists evaluated the samples from sniffer boxes. The malodor was placed on different cotton balls and put into an aroma-tight air bag with a volume of […] together with the raw materials placed in a petri dish. Perfume- and malodor intensities were evaluated on a continuous line scale with ten labels ranging from “no odor” (0) to “strongest imaginable” (10) odor with “moderate” (5) being the unperfumed malodor reference sample. Note that panelists only see the verbal anchors not the numbers (0-10) while rating. Results are arithmetic means of the individual panelist's ratings. Subsequently, the data obtained from the olfactory tests were evaluated statistically by a Friedmann-Test for overall difference between the samples followed by a pairwise comparison to identify significant differences among individual samples.

Compound | Malodor (malodor intensity)
CC1CCC(C(C)C)C(OC(=O)C(C)O)C1 (stereo not drawn) [C3, menthyl lactate] | 4.3
CC(=O)OC1CC(C)CCC1C(C)C (stereo not drawn) [c2, menthyl acetate] | 4.4
CC1CCC(C(C)C)C2(C1)OCC(CO)O2 (stereo not drawn) [C4, menthone glycerin acetal] | 4.4
